Our source for the EC50 values is patent US10570184B2, “GLP-1/glucagon receptor co-agonists for medical use” (Novo Nordisk A/S, priority 2014, dated 2020).

This experiment concerns the target T1, human GLP-1 receptor (Homo sapiens, UniProt P43220).
T1 construct: expressed in transfected cells; host or cells: membranes of BHK cells (parent BHKTS13), clone FCW467-12A
Description: Assay (I)(a) GLP-1 receptor activation, CRE luciferase reporter gene assay in BHK cells. The note with it: without presence of serum albumin; read-out: GLP-1R EC50 (pM) [Assay (I)(a)]. The experiment is classed as cell-based. In a few lines: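 Stable BHK clone expressing human GLP-1 receptor with CRE-driven firefly luciferase, 5×10EE3 cells/well in medium with 2% ovalbumin and 0.2% Pluronic F-68. Compounds at 1×10EE-13 to 1×10EE-6 M final, 3 h at 37° C.; luminescence read, EC50 (pM) from four-parameter fit.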

Each structure is given as a SMILES string. Starred links: 1 amine or outer side, 2 acyl side, 3 side chain; linkers in the order of their positions; H or OH if unused. Non-standard residues stand in square brackets, D forms with d. Residues, ends and D or L forms follow the SMILES beside them. Groups on a side chain read outwards from the residue. *: point of attachment. C18 diacid = O=C(O)CCCCCCCCCCCCCCCCC(=O)*; γGlu = O=C(O)[C@H](CCC(=O)[*:2])N[*:1]; Ac4c = NC1(C(=O)O)CCC1; AEEA = NCCOCCOCC(=O)O; Aib = CC(C)(N)C(=O)O

T1 sequence (P43220 24-463): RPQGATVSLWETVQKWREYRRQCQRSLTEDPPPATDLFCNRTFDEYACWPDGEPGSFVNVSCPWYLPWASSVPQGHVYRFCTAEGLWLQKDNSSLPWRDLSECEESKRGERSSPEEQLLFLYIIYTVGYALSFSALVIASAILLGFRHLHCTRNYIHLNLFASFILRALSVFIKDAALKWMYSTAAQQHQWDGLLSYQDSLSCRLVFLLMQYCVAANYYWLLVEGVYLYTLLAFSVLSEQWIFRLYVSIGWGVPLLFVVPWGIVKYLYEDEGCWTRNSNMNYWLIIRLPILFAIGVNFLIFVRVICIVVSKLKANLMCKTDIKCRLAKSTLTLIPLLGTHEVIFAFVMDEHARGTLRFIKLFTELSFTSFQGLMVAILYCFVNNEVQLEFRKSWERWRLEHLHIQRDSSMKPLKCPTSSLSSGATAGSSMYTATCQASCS

Regarding `CC[C@H](C)[C@H](NC(=O)[C@H](CC(C)C)NC(=O)[C@H](Cc1c[nH]c2ccccc12)NC(=O)[C@H](C)NC(=O)[C@@H](NC(=O)[C@H](Cc1ccccc1)NC(=O)[C@H](CC(=O)O)NC(=O)[C@H](CCCNC(=N)N)NC(=O)[C@H](C)NC(=O)[C@H](CCCNC(=N)N)NC(=O)[C@H](CCCNC(=N)N)NC(=O)[C@H](C)NC(=O)[C@H](CC(=O)O)NC(=O)[C@H](CC(C)C)NC(=O)[C@H](Cc1ccc(O)cc1)NC(=O)[C@H](CCCCN)NC(=O)[C@H](CO)NC(=O)[C@H](Cc1ccc(O)cc1)NC(=O)[C@H](CC(=O)O)NC(=O)[C@H](CO)NC(=O)[C@@H](NC(=O)[C@H](Cc1ccccc1)NC(=O)[C@@H](NC(=O)CNC(=O)[C@H](CCC(N)=O)NC(=O)C(C)(C)NC(=O)[C@@H](N)Cc1c[nH]cn1)[C@@H](C)O)[C@@H](C)O)C(C)C)C(=O)N[C@@H](CCCCNC(=O)CC[C@H](NC(=O)CC[C@H](NC(=O)COCCOCCNC(=O)COCCOCCNC(=O)CC[C@H](NC(=O)CCCCCCCCCCCCCCCCC(=O)O)C(=O)O)C(=O)O)C(=O)O)C(=O)N[C@H](C(N)=O)[C@@H](C)O` [Chem. 32, N^ε28-[(4S)-4-carboxy-4-[[(4S)-4-carboxy-4-[[2-[2-[2-[[2-[2-[2-[[(4S)-4-carboxy-4-(17-carboxyheptadecanoylamino)butanoyl]amino]ethoxy]ethoxy]acetyl]amino]ethoxy]ethoxy]acetyl]amino]butanoyl]amino]butanoyl]-[Aib2,Ala16,Arg20,Ala24,Ile27,Lys28]-Glucagon amide] (H-H[Aib]QGTFTSDYSKYLDARRARDFVAWLIK([γGlu-γGlu-AEEA-AEEA-γGlu-C18 diacid])T-NH2), the EC50 worked out at 2 pM.
With `CC[C@H](C)[C@H](NC(=O)[C@H](CC(C)C)NC(=O)[C@H](Cc1c[nH]c2ccccc12)NC(=O)[C@H](C)NC(=O)[C@@H](NC(=O)[C@H](Cc1ccccc1)NC(=O)[C@H](CC(=O)O)NC(=O)[C@H](CCC(N)=O)NC(=O)[C@H](C)NC(=O)[C@H](CCCNC(=N)N)NC(=O)[C@H](CCCNC(=N)N)NC(=O)[C@H](CO)NC(=O)[C@H](CCC(=O)O)NC(=O)[C@H](CC(C)C)NC(=O)[C@H](Cc1ccc(O)cc1)NC(=O)[C@H](CCCCN)NC(=O)[C@H](CO)NC(=O)[C@H](Cc1ccc(O)cc1)NC(=O)[C@H](CC(=O)O)NC(=O)[C@H](CO)NC(=O)[C@@H](NC(=O)[C@H](Cc1ccccc1)NC(=O)[C@@H](NC(=O)CNC(=O)[C@H](CCC(N)=O)NC(=O)C(C)(C)NC(=O)[C@@H](N)Cc1c[nH]cn1)[C@@H](C)O)[C@@H](C)O)C(C)C)C(=O)N[C@@H](CCCCNC(=O)CC[C@H](NC(=O)CC[C@H](NC(=O)COCCOCCNC(=O)COCCOCCNC(=O)CC[C@H](NC(=O)CCCCCCCCCCCCCCCCC(=O)O)C(=O)O)C(=O)O)C(=O)O)C(=O)N[C@H](C(N)=O)[C@@H](C)O` [Chem. 34, N^ε28-[(4S)-4-carboxy-4-[[(4S)-4-carboxy-4-[[2-[2-[2-[[2-[2-[2-[[(4S)-4-carboxy-4-(17-carboxyheptadecanoylamino)butanoyl]amino]ethoxy]ethoxy]acetyl]amino]ethoxy]ethoxy]acetyl]amino]butanoyl]amino]butanoyl]-[Aib2,Glu15,Ala24,Ile27,Lys28]-Glucagon amide] (H-H[Aib]QGTFTSDYSKYLESRRAQDFVAWLIK([γGlu-γGlu-AEEA-AEEA-γGlu-C18 diacid])T-NH2) the figure was 3 pM; with `CC[C@H](C)[C@H](NC(=O)[C@H](CC(C)C)NC(=O)[C@H](Cc1c[nH]c2ccccc12)NC(=O)[C@H](CCC(N)=O)NC(=O)[C@@H](NC(=O)[C@H](Cc1ccccc1)NC(=O)[C@H](CC(=O)O)NC(=O)[C@H](CCCNC(=N)N)NC(=O)[C@H](C)NC(=O)[C@H](CCCNC(=N)N)NC(=O)[C@H](CCCNC(=N)N)NC(=O)[C@H](CO)NC(=O)[C@H](CCC(=O)O)NC(=O)[C@H](CC(C)C)NC(=O)[C@H](Cc1ccc(O)cc1)NC(=O)[C@H](CCCNC(=N)N)NC(=O)[C@H](CO)NC(=O)[C@H](Cc1ccc(O)cc1)NC(=O)[C@H](CC(=O)O)NC(=O)[C@H](CO)NC(=O)[C@@H](NC(=O)[C@H](Cc1ccccc1)NC(=O)[C@@H](NC(=O)CNC(=O)[C@H](CCC(N)=O)NC(=O)C1(NC(=O)[C@@H](N)Cc2c[nH]cn2)CCC1)[C@@H](C)O)[C@@H](C)O)C(C)C)C(=O)N[C@@H](CCCCNC(=O)CC[C@H](NC(=O)COCCOCCNC(=O)CC[C@H](NC(=O)COCCOCCNC(=O)CC[C@H](NC(=O)COCCOCCNC(=O)CC[C@H](NC(=O)CC[C@H](NC(=O)CCCCCCCCCCCCCCCCC(=O)O)C(=O)O)C(=O)O)C(=O)O)C(=O)O)C(=O)O)C(=O)N[C@H](C(N)=O)[C@@H](C)O` [Chem. 36, N^ε28-[(4S)-4-carboxy-4-[[2-[2-[2-[[(4S)-4-carboxy-4-[[2-[2-[2-[[(4S)-4-carboxy-4-[[2-[2-[2-[[(4S)-4-carboxy-4-[[(4S)-4-carboxy-4-(17-carboxyheptadecanoylamino)butanoyl]amino]butanoyl]amino]ethoxy]ethoxy]acetyl]amino]butanoyl]amino]ethoxy]ethoxy]acetyl]amino]butanoyl]amino]ethoxy]ethoxy]acetyl]amino]butanoyl]-[Acb2,Arg12,Glu15,Arg20,Ile27,Lys28]-Glucagon amide] (H-H[Ac4c]QGTFTSDYSRYLESRRARDFVQWLIK([γGlu-AEEA-γGlu-AEEA-γGlu-AEEA-γGlu-γGlu-C18 diacid])T-NH2; N-terminus assumed), 4 pM; with `CC[C@H](C)[C@H](NC(=O)[C@H](CC(C)C)NC(=O)[C@H](Cc1c[nH]c2ccccc12)NC(=O)[C@H](CCC(N)=O)NC(=O)[C@@H](NC(=O)[C@H](Cc1ccccc1)NC(=O)[C@H](CC(=O)O)NC(=O)[C@H](CCCNC(=N)N)NC(=O)[C@H](C)NC(=O)[C@H](CCCNC(=N)N)NC(=O)[C@H](CCCNC(=N)N)NC(=O)[C@H](CO)NC(=O)[C@H](CCC(=O)O)NC(=O)[C@H](CC(C)C)NC(=O)[C@H](Cc1ccc(O)cc1)NC(=O)[C@H](CCCNC(=N)N)NC(=O)[C@H](CO)NC(=O)[C@H](Cc1ccc(O)cc1)NC(=O)[C@H](CC(=O)O)NC(=O)[C@H](CO)NC(=O)[C@@H](NC(=O)[C@H](Cc1ccccc1)NC(=O)[C@@H](NC(=O)CNC(=O)[C@H](CCC(N)=O)NC(=O)C(C)(C)NC(=O)[C@@H](N)Cc1c[nH]cn1)[C@@H](C)O)[C@@H](C)O)C(C)C)C(=O)N[C@@H](CCCCNC(=O)CC[C@H](NC(=O)COCCOCCNC(=O)CC[C@H](NC(=O)COCCOCCNC(=O)CC[C@H](NC(=O)COCCOCCNC(=O)CC[C@H](NC(=O)CC[C@H](NC(=O)CCCCCCCCCCCCCCCCC(=O)O)C(=O)O)C(=O)O)C(=O)O)C(=O)O)C(=O)O)C(=O)N[C@H](C(N)=O)[C@@H](C)O` [Chem. 37, N^28-[(4S)-4-carboxy-4-[[2-[2-[2-[[(4S)-4-carboxy-4-[[2-[2-[2-[[(4S)-4-carboxy-4-[[2-[2-[2-[[(4S)-4-carboxy-4-[[(4S)-4-carboxy-4-(17-carboxyheptadecanoylamino)butanoyl]amino]butanoyl]amino]ethoxy]ethoxy]acetyl]amino]butanoyl]amino]ethoxy]ethoxy]acetyl]amino]butanoyl]amino]ethoxy]ethoxy]acetyl]amino]butanoyl]-[Aib2,Arg12,Glu15,Arg20,Ile27,Lys28]-Glucagon amide] (H-H[Aib]QGTFTSDYSRYLESRRARDFVQWLIK([γGlu-AEEA-γGlu-AEEA-γGlu-AEEA-γGlu-γGlu-C18 diacid])T-NH2; N-terminus assumed), 4 pM.
With `CC[C@H](C)[C@H](NC(=O)[C@H](CC(C)C)NC(=O)[C@H](Cc1c[nH]c2ccccc12)NC(=O)[C@H](CCC(N)=O)NC(=O)[C@@H](NC(=O)[C@H](Cc1ccccc1)NC(=O)[C@H](CCC(=O)O)NC(=O)[C@H](CCC(N)=O)NC(=O)[C@H](C)NC(=O)[C@H](CCCNC(=N)N)NC(=O)[C@H](CCCNC(=N)N)NC(=O)[C@H](CO)NC(=O)[C@H](CCC(=O)O)NC(=O)[C@H](CC(C)C)NC(=O)[C@H](Cc1ccc(O)cc1)NC(=O)[C@H](CCCCN)NC(=O)[C@H](CO)NC(=O)[C@H](CC(C)C)NC(=O)[C@H](CC(=O)O)NC(=O)[C@H](CO)NC(=O)[C@@H](NC(=O)[C@H](Cc1ccccc1)NC(=O)[C@@H](NC(=O)CNC(=O)[C@H](CCC(N)=O)NC(=O)C1(NC(=O)[C@@H](N)Cc2c[nH]cn2)CCC1)[C@@H](C)O)[C@@H](C)O)C(C)C)C(=O)N[C@@H](CCCCNC(=O)CC[C@H](NC(=O)COCCOCCNC(=O)COCCOCCNC(=O)CC[C@H](NC(=O)CC[C@H](NC(=O)CCCCCCCCCCCCCCCCC(=O)O)C(=O)O)C(=O)O)C(=O)O)C(=O)N[C@H](C(N)=O)[C@@H](C)O` [Chem. 38, N^ε28-[(4S)-4-carboxy-4-[[2-[2-[2-[[2-[2-[2-[[(4S)-4-carboxy-4-[[(4S)-4-carboxy-4-(17-carboxyheptadecanoylamino)butanoyl]amino]butanoyl]amino]ethoxy]ethoxy]acetyl]amino]ethoxy]ethoxy]acetyl]amino]butanoyl]-[Acb2,Leu10,Glu15,Glu21,Ile27,Lys28]-Glucagon amide] (H-H[Ac4c]QGTFTSDLSKYLESRRAQEFVQWLIK([γGlu-AEEA-AEEA-γGlu-γGlu-C18 diacid])T-NH2; N-terminus assumed) the figure was 2 pM.
